# According to PMC11591356, “Immunomodulatory Effects of the Tobacco Defensin NaD1” (Antibiotics, 2024):
# Assays:
# [1] = system: PBMCs; details: cited from earlier work
# Protocol: (§1) The human cathelicidin LL-37 has been previously shown to have a toxic effect on PBMCs at the concentration of 12 µM [20].
# [2] = system: PBMCs; assay: Cytotoxicity assay, resazurin method, PBMCs; type: cell-based, human; details: PBMCs, peptide 2.5 µM, 24 h, resazurin
# From the text: Peripheral blood mononuclear cells (PBMCs) from healthy donors were purchased from American Type Culture Collection (ATCC PCS-800-011). Primary monocytes were isolated from PBMCs by adherence to the plastic surface. For that, PBMCs were thawed, resuspended in RPMI-1640 culture medium (Corning, Corning, NY, USA) without serum at a concentration of 2 × 10^6 cells/mL, seeded into the wells of a 24-well plate and placed in a humidified CO2-intubator (CellXpert C170i, Eppendorf, Hamburg, Germany) for 1 h. After that, non-adherent cells were removed from the wells and attached monocytes were thoroughly washed with PBS and cultured in a CO2-intubator in complete RPMI-1640 containing 10% human serum (HS Type AB, Capricorn Scientific, Ebsdorfergrund, Germany) and 1×antibiotic-antimycotic (1×AA) solution (Sigma, St. Louis, MO, USA).
# (§2) The cytotoxic effects of the tobacco defensin NaD1 towards PBMCs or Caco-2 cells were investigated in 96-well plates using the resazurin method as previously described. In brief, 4 × 10^5 per well Caco-2 cells not in a monolayer as well as Caco-2 cells in a monolayer in DMEM/F12 (1:1) medium with 10% FBS or 2 × 10^6 PBMCs per well in RPMI-1640 also with 10% FBS were incubated with serial dilutions of NaD1 at final concentrations from 0.39 to 50 μM or from 2.1 to 180 μM for 24 h. After that, resazurin (Sigma, St. Louis, MO, USA) was added at a final concentration of 70 µM and the plates were incubated overnight (16–18 h). Untreated cells and cells treated by non-ionogenic detergent Triton X-100 were used as negative and positive controls, respectively. […] The cell viability was estimated by resorufin fluorescence registered at […] via the following equation: cell viability (%) = (Fsample/Fcontrol) × 100%. Experiment was carried out twice in duplicate.
# [3] = system: Caco-2 cells in a monolayer; assay: Cytotoxicity assay, resazurin method, Caco-2 cells in a monolayer; type: cell-based, human; details: Caco-2 monolayer, peptide 0.8 µM, 24 h
# Protocol: as §2
# [4] = system: THP-1-derived macrophages; assay: ELISA assay of cytokine production by THP-1-derived macrophages; type: cell-based, human
# Protocol: THP-1 (ATCC TIB-202) cells were thawed and cultured in complete RPMI-1640, containing 10% FBS (Capricorn Scientific) and 1×AA solution in CO2-intubator. Monocytic THP-1 cells were differentiated into resting M0 macrophages by stimulation for 24 h with 100 ng/mL phorbol 12-myristate 13-acetate (PMA) in complete RPMI-1640. Then, the attached macrophage-like cells were washed out with culture medium without serum and incubated for another 48 h in PMA-free complete culture medium with 10% HS and 1×AA solution.
# THP-1-derived macrophages were seeded into the wells of a 24-well plate at a density of 2.7 × 10^5 cells/well in complete RPMI-1640 with 10% HS and 1×AA solution. Then, 24 h later, the culture medium was replaced by the fresh complete RPMI-1640 containing lipopolysaccharide from Escherichia coli 0111:B4 (LPS, Sigma, St. Louis, MO, USA) or zymosan from the cell wall of Saccharomyces cerevisiae (Serva, Heidelberg, Germany) at concentrations of 1 or 10 μg/mL, respectively; antimicrobial peptides NaD1, Psd1, LL-37 or HBD2 at concentrations of 2 or 0.2 µM; and combinations of antimicrobial peptides with LPS or zymosan at the same concentrations. Insoluble zymosan was resuspended in sterile water and sonicated twice for 30 s; after that, the stock solution was heated to 80 °C for 20 min. Peptides were added 2 h before stimulation with LPS and zymosan. After that, PAMPs solutions were added and the cells were cultured for 24 h. Complete RPMI-1640 only was used in the control wells. Culture supernatants were collected and stored at −70 °C prior to the cytokines’ assessment.
# The production of pro- and anti-inflammatory cytokines IL-1β, IL-6, TNF-α and IL-10 by stimulated and non-stimulated THP-1-derived macrophages were estimated by using ELISA kits (Vector-Best, Koltsovo, Russia). Briefly, 96-well plates with adsorbed monoclonal antibodies to the corresponding cytokine were used. Undiluted or diluted 5, 20 or 80 times in the case of IL-10, TNF-α and IL-1β or IL-6, respectively, culture supernatants from the wells of 24-well plates were taken for analysis. Biotinylated polyclonal antibodies to cytokines, streptavidin conjugated to HRP and TMB substrate were further used for the detection of immune complexes. A panel of calibration solutions containing different concentrations of cytokines was used in each experiment. Experiments were performed using two biological and two technical repeats. The release of the cytokines in the control and experimental samples was compared with an unpaired two-sample t-test using GraphPad Prism v.8.0.1 (GraphPad Software, Inc., San Diego, CA, USA). The p values ≤ 0.05 were considered significant.
# [5] = system: THP-1 cells; details: peptide 1.2 µM; cited from earlier work
# Protocol: as §1
# [6] = system: primary monocytes; details: cited from earlier work
# From the text: Then, primary human monocytes were chosen to study the immunomodulatory properties of NaD1. Monocytes circulating in the blood can be recruited and extravasated into tissues during inflammatory processes. Moreover, the recruitment of monocytes to the sites of inflammation is critical for host defense not only when infected, but also in the case of sterile injury. In the case of monocytes, NaD1 at the same concentration induced a decrease of chemotactic CXCL1/GROα and CXCL8/IL-8 levels and elevation of the fibroblast growth factor 2 (FGF-2) production; however, these changes were ...
# [7] = system: mature DCs; details: previous study; cited from earlier work
# From the text: In the next step of this work, we studied the immunomodulatory properties of NaD1 by using primary monocytes and monocyte-derived immature dendritic cells (DCs). DCs represent a type of antigen-presenting cells, playing a key role in adaptive immune response. Their primary functions involve phagocytosis, processing and presentation of captured antigens to T cells. In most tissues, they are present in a state known as “immature” DCs, unable to activate and stimulate T lymphocytes; their activation and maturation typically starts when DCs identify danger signals. This is why immature DCs ...
# [8] = system: Caco-2 polarized monolayer; details: cited from earlier work
# [9] = peptide 2 µM 2 h before LPS 1 μg/mL, 24 h, vs LPS alone
# [10] = peptide 2 µM 2 h before zymosan 10 μg/mL, 24 h, vs zymosan alone
compound,measurement,setting,value
CC[C@H](C)[C@H](NC(=O)[C@H](CCCCN)NC(=O)[C@H](CCC(=O)O)NC(=O)[C@H](CCCCN)NC(=O)[C@H](CO)NC(=O)[C@H](CCCCN)NC(=O)[C@H](CCCNC(=N)N)NC(=O)[C@H](Cc1ccccc1)NC(=O)[C@H](Cc1ccccc1)NC(=O)[C@H](CC(=O)O)NC(=O)CNC(=O)[C@H](CC(C)C)NC(=O)[C@@H](N)CC(C)C)C(=O)NCC(=O)N[C@@H](CCCCN)C(=O)N[C@@H](CCC(=O)O)C(=O)N[C@@H](Cc1ccccc1)C(=O)N[C@@H](CCCCN)C(=O)N[C@@H](CCCNC(=N)N)C(=O)N[C@H](C(=O)N[C@H](C(=O)N[C@@H](CCC(N)=O)C(=O)N[C@@H](CCCNC(=N)N)C(=O)N[C@H](C(=O)N[C@@H](CCCCN)C(=O)N[C@@H](CC(=O)O)C(=O)N[C@@H](Cc1ccccc1)C(=O)N[C@@H](CC(C)C)C(=O)N[C@@H](CCCNC(=N)N)C(=O)N[C@@H](CC(N)=O)C(=O)N[C@@H](CC(C)C)C(=O)N[C@H](C(=O)N1CCC[C@H]1C(=O)N[C@@H](CCCNC(=N)N)C(=O)N[C@H](C(=O)N[C@@H](CCC(=O)O)C(=O)N[C@@H](CO)C(=O)O)[C@@H](C)O)C(C)C)[C@@H](C)CC)C(C)C)[C@@H](C)CC [LL-37],Toxic effect on PBMCs,[1]; peptide 12 µM,toxic effect
"CC[C@H](C)[C@H](NC(=O)CN)C(=O)NCC(=O)N[C@@H](C)C(=O)N[C@H](C(=O)N[C@@H](CC(C)C)C(=O)N[C@@H](CCCCN)C(=O)N[C@H](C(=O)N[C@@H](CC(C)C)C(=O)N[C@H](C(=O)N[C@H](C(=O)NCC(=O)N[C@@H](CC(C)C)C(=O)N1CCC[C@H]1C(=O)N[C@@H](C)C(=O)N[C@@H](CC(C)C)C(=O)N[C@H](C(=O)N[C@@H](CO)C(=O)N[C@@H](Cc1c[nH]c2ccccc12)C(=O)N[C@H](C(=O)N[C@@H](CCCCN)C(=O)N[C@@H](CCCNC(=N)N)C(=O)N[C@@H](CCCCN)C(=O)N[C@@H](CCCNC(=N)N)C(=O)N[C@@H](CCC(N)=O)C(=O)N[C@@H](CCC(N)=O)C(N)=O)[C@@H](C)CC)[C@@H](C)CC)[C@@H](C)O)[C@@H](C)O)C(C)C)C(C)C [melittin, reference compound]",Cell death,[2],approximately 50%
same,Cell viability,[3],a decrease in cell viability was observed
"HBD2: Recombinant human β-defensin 2 (UNIPROT O15263), expressed in E. coli (GIGDPVTCLKSGAICHPVFCPRRYKQIGTCGLPGTKCCKKP; UniProt O15263 24-64, looked up) [reference compound]",LPS-induced IL-6 production,[4]; [9],increased the LPS-stimulated production of IL-6
same,Zymosan-induced IL-6 production,[4]; [10],slight decrease in the zymosan-induced production of IL-6
same,Level of THP-1 cell death,[5],did not increase the level of THP-1 cell death
"Psd1: Pea defensin Psd1 (UNIPROT P81929), obtained as described previously (KTCEHLADTYRGVCFTNASCDDHCKNKAHLISGTCHNWKCFCTQNC; UniProt P81929 1-46, looked up) [reference compound]",Production of chemokines by monocytes,[6],increased the production of both CCL3/MIP-1α and CCL4/MIP-1β
same,LPS-induced IL-6 production,[4]; [9],increased the LPS-stimulated production of IL-6
same,LPS-induced IL-10 production,[4]; [9],increased the LPS-induced production of IL-10
same,LPS-induced TNF-α secretion,[4]; [9],reduced the LPS-induced secretion of TNF-α
same,IL-1β production in the presence of zymosan,[4]; [10],slightly reduced the production of IL-1β
same,IL-10 production in the presence of zymosan,[4]; [10],increased the production of IL-10 in the presence of zymosan
same,"IL-10 production, unstimulated macrophages","[4]; peptide 2 µM alone, vs unstimulated control",induced the production of IL-10
same,Production of cytokines and chemokines by mature DCs,[7],"induced an elevation of the production of cytokines IL-1RA, IL-5, IL-6, IL-10, IL-12, IL-15, IL-27 and TNFα and chemokines CXCL8/IL-8, CCL2/MCP-1 and CCL7/MCP-3"
same,Cytotoxic activity against PBMCs,[1]; peptide 50 µM,no cytotoxic activity
same,Papp A→B compared with NaD1,[8]; Psd1 value from earlier work,nearly the same
same,"Papp, secretory versus absorptive direction",[8],apparent permeability coefficients were higher in the secretory direction than in the absorptive one
